Reference: patent US20260109707A1, “HETEROBIFUNCTIONAL COMPOUNDS AND METHODS OF TREATING DISEASE” (Halda Therapeutics OpCo. Inc., priority 2022, published 2026)

Tests used:
[1] = test system: T-Rex 293 cell line SC3 cells having increased expression of androgen receptor protein due to exposure to doxycycline; assay: Cellular growth inhibition assay, T-Rex 293 SC3 cells with doxycycline (CellTiter-Glo, 72 hours); assay type: cell-based; conditions: 72 h, T-Rex 293 SC3 cells with increased androgen receptor expression due to doxycycline (10 ng/mL)
Procedure, shortened: (§1)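 Growth inhibition is measured in an inducible AR-expressing T-Rex 293 clone, SC3, cultured with or without 10 ng/mL doxycycline in hormone-depleted medium. Test compounds are applied for 72 hours. GI50 values derive from CellTiter-Glo 2.0 signal fitted by four-parameter regression.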

[2] = test system: T-Rex 293 cell line SC3 cells lacking increased expression of androgen receptor protein; assay: Cellular growth inhibition assay, T-Rex 293 SC3 cells without doxycycline (CellTiter-Glo, 72 hours); assay type: cell-based; conditions: 72 h, T-Rex 293 cell line SC3 cells not exposed to doxycycline (lacking increased androgen receptor expression)
Procedure, shortened: as §1

T47D cells = assay: Cellular growth inhibition assay for T47D cells (CellTiter-Glo, 72 hours); assay type: cell-based, human; conditions: Homo sapiens, T47D, 72 h, 72 hours treatment
Procedure, shortened: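 Cells are plated at 3000/well and allowed 24 h before treatment. Test compound in medium containing 0.5% DMSO is then added, with DMSO-only wells as negative control, and plates are incubated 72 h at 37 °C. ATP luminescence (CellTiter-Glo 2.0) is then fitted to four parameters to derive GI50.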

[3] = Cellular growth inhibition assay, T-Rex 293 SC cells with doxycycline (CellTiter-Glo, 72 hours); assay type: cell-based; conditions: T-Rex 293 SC cells with doxycycline (increased progesterone receptor isoform B)
Description: (§2) The following types of cells were prepared for this experiment: (i) a T-Rex 293 cell line having increased expression of progesterone receptor isoform B protein due to exposure to doxycycline and (ii) a T-Rex 293 cell line lacking increased expression of progesterone receptor isoform B protein. Ability of the test compounds to inhibit proliferation of the foregoing cell types was evaluated according to the procedures set forth below.
(§3) The doxycycline-inducible progesterone receptor isoform B protein expressing cell line was established using the following protocol: T-Rex 293 cells were purchased from Invitrogen (Cat #R71007) and transfected using Lipofectamine 2000 with the wild-type progesterone receptor B protein sequence cloned into the pcDNA4/TO vector. Transfected cells were selected using 400 μg/mL Zeocin (Invitrogen Cat #R25001). Following selection, single clones were raised and maintained in Dulbecco's Modified Eagle Medium (DMEM) supplemented with 10% w/w Tetracycline-free fetal bovine serum (FBS) and 250 μg/mL Zeocin. Clones were analyzed for expression of progesterone receptor isoform B protein in the presence and absence of 10 ng/mL doxycycline (Sigma Cat #D9891), and a single doxycycline-inducible clone (hereinafter “SC”) was selected for use in downstream assays.
(§4) The SC cells were seeded on poly-D-lysine coated, black clear-bottom 384-well plates at 2500/well, in 25 μL Phenol Red Free Dulbecco's Modified Eagle Medium (DMEM) supplemented with 10% w/w charcoal-dextran treated fetal bovine serum (FBS) and 1% w/w pen-strep, with or without 10 ng/mL doxycycline. Pen-Strep is a commercially available mixture of penicillin G and streptomycin, which is used in mammalian cell culture media to prevent bacterial contamination. Phenol Red Free Dulbecco's Modified Eagle Medium (DMEM) supplemented with 10% w/w charcoal-dextran treated fetal bovine serum (FBS) and 1% w/w pen-strep, with or without 10 ng/mL doxycycline is herein referred to as Treatment Medium. Following seeding of cells in the plates, the plates were spun at 300×g for 30 seconds, then equilibrated to room temperature for 30 minutes, and then deposited in a humidified tissue culture incubator maintained at 37° C. with 5% CO2.
(§5) At 24 hours after seeding of the cells, dilutions of test compound were prepared in DMSO and dissolved in Treatment Medium, to achieve a final DMSO concentration of 0.5% w/w, thereby providing the Test Compound Solution. A 25 μL aliquot of the Test Compound Solution was added to cells in the well plates. An equal volume of a solution containing DMSO and Treatment Medium was used as a negative control. Following treatment of cells with Test Compound Solution or said equal volume of a solution containing DMSO and Treatment Medium, the plates were spun at 300×g for 30 seconds, and then left in an incubator for 72 hours.
(§6) At the end of the treatment duration, cell viability was quantified with CellTiter-Glo 2.0 reagent (Promega Cat #G9243). For this purpose, plates were equilibrated to room temperature for 30 minutes, and then 25 μL of CellTiter-Glo 2.0 reagent was added to cells in the plate wells. Plates were then agitated on a shaker for two minutes at 500 rpm and subsequently incubated at room temperature for 10 minutes. Following incubation, the plates were spun at 3000×g for 30 seconds, then sealed with an optical adhesive cover, and luminescence readings were measured with an EnVision Plate Reader (Perkin Elmer).
(§7) Data was normalized using zero luminescence for baseline. A four-parameter non-linear regression curve fit was applied to dose-response data in GraphPad Prism data analysis software to determine the half-maximal growth inhibitory concentration (GI50) for each test compound.

[4] = test system: T-Rex 293 cell line SC cells lacking increased expression of progesterone receptor isoform B protein; assay: Cellular growth inhibition assay, T-Rex 293 SC cells without doxycycline (CellTiter-Glo, 72 hours); assay type: cell-based; conditions: T-Rex 293 SC cells not exposed to doxycycline
Description: as §2, §3, §4, §5, §6, §7

VCaP cells = assay: Cellular growth inhibition assay for VCaP cells (CellTiter-Glo, 72 hours); assay type: cell-based, human; conditions: Homo sapiens, VCaP, 72 h
Procedure, shortened: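 Luminescent viability signal after 72 h of compound exposure gave GI50 values by four-parameter nonlinear regression. Compounds were added in 0.5% DMSO to cells plated 24 h earlier at 5000/well in DMEM containing 10% FBS.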

SMILES	GI50 [1]	GI50 [2]	GI50 (T47D cells)	GI50 [3]	GI50 [4]	GI50 (VCaP cells)
Cc1sc2c(c1C)C(c1ccc(CCCN3[C@H](C)CN(c4ccc(C(=O)N[C@H]5CC[C@H](Oc6ccc(C#N)c(Cl)c6)CC5)nn4)C[C@@H]3C)cc1)=N[C@@H](Cc1ncco1)c1nnc(C)n1-2 [I-129]	< 500 nM	< 500 nM	< 500 nM	< 500 nM	< 500 nM	< 500 nM
Cc1sc2c(c1C)C(c1ccc(CCN3CCCN(c4ccc(C(=O)N[C@H]5CC[C@H](Oc6ccc(C#N)c(Cl)c6)CC5)nn4)CC3)cc1)=N[C@@H](Cc1ncco1)c1nnc(C)n1-2 [I-128]	< 500 nM	< 500 nM	< 500 nM	< 500 nM	< 500 nM	< 500 nM
Cc1sc2c(c1C)C(c1ccc(C3CC3CC3CCCN(c4ccc(C(=O)N[C@H]5CC[C@H](Oc6ccc(C#N)c(Cl)c6)CC5)nn4)C3)cc1)=N[C@@H](Cc1ncco1)c1nnc(C)n1-2 (stereo partly drawn) [I-205]	< 500 nM	< 500 nM	< 500 nM	< 500 nM	< 500 nM	< 500 nM
Cc1sc2c(c1C)C(c1ccc(CCC3CC4(CCCN(c5ccc(C(=O)N[C@H]6CC[C@H](Oc7ccc(C#N)c(Cl)c7)CC6)nn5)C4)C3)cc1)=N[C@@H](Cc1ncco1)c1nnc(C)n1-2 (stereo partly drawn) [I-208]	< 500 nM	< 500 nM	< 500 nM	< 500 nM	< 500 nM	< 500 nM
CCNC(=O)C[C@@H]1N=C(c2ccc(OCCN3CCN(c4ccc(C(=O)N[C@H]5CC[C@H](Oc6ccc(C#N)c(Cl)c6)CC5)nn4)CC3)cc2)c2c(sc(C)c2C)-n2c(C)nnc21 [I-25]	< 500 nM	500 to 1500 nM	< 500 nM	< 500 nM	500 to 1500 nM	< 500 nM
Cc1sc2c(c1C)C(c1ccc(CCCN3[C@@H](C)CN(c4ccc(C(=O)N[C@H]5CC[C@H](Oc6ccc(C#N)c(Cl)c6)CC5)nn4)C[C@@H]3C)cc1)=N[C@@H](Cc1ncco1)c1nnc(C)n1-2 [I-130]	< 500 nM	< 500 nM	< 500 nM	< 500 nM	< 500 nM	< 500 nM
Cc1sc2c(c1C)C(c1ccc(C3C[C@H]3CC3CCCN(c4ccc(C(=O)N[C@H]5CC[C@H](Oc6ccc(C#N)c(Cl)c6)CC5)nn4)C3)cc1)=N[C@@H](Cc1ncco1)c1nnc(C)n1-2 (stereo partly drawn) [I-204]	< 500 nM	< 500 nM	< 500 nM	< 500 nM	< 500 nM	< 500 nM
CCNC(=O)C[C@@H]1N=C(c2ccc(OC3CCN(c4ccc(C(=O)N[C@H]5CC[C@H](Oc6ccc(C#N)c(Cl)c6)CC5)nn4)CC3)cc2)c2c(sc(C)c2C)-n2c(C)nnc21 [I-26]	< 500 nM	500 to 1500 nM	< 500 nM	< 500 nM	< 500 nM	< 500 nM
